This test addresses human σ2 receptor (TMEM97) (Homo sapiens, UniProt Q5BJF2). The test can be described thus: biochemical. The format is Expi293 membranes. Particulars: read-out: % of control remaining.
Chain of human σ2 receptor (TMEM97) (Q5BJF2 whole entry): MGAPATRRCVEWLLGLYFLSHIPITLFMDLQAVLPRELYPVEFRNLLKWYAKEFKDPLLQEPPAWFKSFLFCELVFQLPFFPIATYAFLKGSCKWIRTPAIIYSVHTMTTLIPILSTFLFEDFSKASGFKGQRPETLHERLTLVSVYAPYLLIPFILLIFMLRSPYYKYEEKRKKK
As to `C[C@H](Cc1ccccc1Br)NCC1(O)CCC1` [ZINC000577603040], the remaining activity at 1 µM came out at 61.7%.

For `CCc1cc(NC(=O)[C@@H]2CC[C@H](C3CC3)N2)ccc1C` [ZINC000407281203], the remaining activity at 1 µM was 80.8%.

For the compound `N#Cc1csc(CN2CCC[C@H]2Cc2ccccc2)c1` [ZINC000124982852], the remaining activity at 1 µM was 89.7%.

As for `CCN1CCCC[C@H]1C(=O)NC[C@@H](O)CNC(=O)c1cnccn1` [ZINC001416718427], the remaining activity at 1 µM was determined as 80.5%.

For the compound `Cc1cccc(CNc2nccn2Cc2ccccc2)c1C` [ZINC000508475661], the remaining activity at 1 µM is 38.6%.

On to `Fc1ccc(C2OCCO2)c(Cl)c1CNC1CC2(CCC2)C1` [ZINC000846106280], for which the remaining activity at 1 µM was found to be 43.6%.

For `CN1CCO[C@@H](CN(Cc2cnc(-c3cnn(C)c3)nc2)CC2CC2)C1` [ZINC000369129048], the remaining activity at 1 µM was found to be 120%.

Consider `Cc1csc2nc(CN[C@H]3C[C@H](OCc4ccccc4)C3(C)C)cc(=O)n12` [ZINC000567338231], for which the remaining activity at 1 µM came out at 34.7%.

Take `CN(C)c1ccc(C(=O)N2CC(O)(CNC(=O)c3cnn[nH]3)C2)nc1` [ZINC001043817104]: the remaining activity at 1 µM came out at 88.5%.

Turning to `C[C@@H]1CCN(CC(=O)N(C)[C@@H](C)c2ccc(F)c(F)c2)C[C@@H]1C` [ZINC000501775665], the remaining activity at 1 µM worked out at 20.4%.

With `C[C@H](CCCc1cccnc1)N[C@@H](C)Cn1cccn1` [ZINC000453142034], the remaining activity at 1 µM was 24.9%.

Consider `CN1CCC[C@@H]1C(=O)NC[C@H]1CN(CCCC(C)(C)C)CCCO1` [ZINC001149399826], for which the remaining activity at 1 µM was 96.4%.

Regarding `O=C([C@@H]1C[C@H]1C(F)(F)F)N(CCN1CCCCCC1)C1CCC1` [ZINC000452023252], the remaining activity at 1 µM stood at 37.5%.

For the compound `CCN1CCN(CCNC(=S)N[C@H](C)c2cccs2)CC1` [ZINC000726467110], the remaining activity at 1 µM was determined as 79.5%.

Regarding `CCc1ccc(F)cc1C(=O)N1CCCN(CCOC(C)C)CC1` [ZINC001196417557], the remaining activity at 1 µM is 71.9%.

`Cc1ccc2c(c1)CC[C@H]2N[C@@H](CO)Cc1ccccc1` [ZINC000766031584]: the remaining activity at 1 µM came to 63.2%.

Take `CC(=O)N[C@@H]1CCN(S(=O)(=O)c2cnn([C@@H]3CCOC3)c2)C1` [ZINC001413380655]: the remaining activity at 1 µM amounted to 118%.

On to `CNC(=O)NCC(=O)N1CC(O)(CNC(=O)c2ccc(F)s2)C1` [ZINC001043696212], for which the remaining activity at 1 µM came to 84.5%.

Turning to `CN1CC[C@@H](CNC(=O)Nc2cc(F)ccc2Oc2ccccc2)C1` [ZINC000454705882], the remaining activity at 1 µM was found to be 87.6%.

Turning to `Cc1ccoc1CC(=O)N1C[C@H]2CCN(CC(=O)N(C)C)C[C@H]2C1` [ZINC001088099598], the remaining activity at 1 µM stood at 132%.

On to `C[C@@H](Cc1c(Cl)cccc1Cl)NC(=O)c1cn(C[C@@H]2CCCN2)nn1` [ZINC000646273308], for which the remaining activity at 1 µM worked out at 106%.

Consider `CS[C@@H]1CCC[C@H](NC(=O)NC2CCN([C@@H]3CCCC[C@@H]3O)CC2)C1` [ZINC000155998528], for which the remaining activity at 1 µM worked out at 30.9%.

Take `CN1CCN(CCNC(=O)C(=O)NC[C@H]2CCC=CO2)CC1(C)C` [ZINC000805503179]: the remaining activity at 1 µM was found to be 105%.

Regarding `COC(=O)[C@@]1(C)CCCN(C(=O)C(=O)N[C@@H](C)Cc2ccncc2)C1` [ZINC000422349618], the remaining activity at 1 µM was 129%.

In the case of `CN(C)C(=O)c1cncc(N[C@H]2CC[C@H](NC(=O)C(N)=O)CC2)n1` [ZINC001063398490], the remaining activity at 1 µM was found to be 146%.

With `CC(C)N1CC[C@@H](N(C)S(=O)(=O)c2c(F)c(F)cc(F)c2F)C1` [ZINC000452107481], the remaining activity at 1 µM turned out to be 36.9%.

As for `CN1CCC(C(=O)NC[C@@H]2CCN(c3ncc(Cl)cn3)C2)CC1` [ZINC001061620290], the remaining activity at 1 µM came out at 91.3%.

For `CCc1ccc([C@@H](C)N[C@@H]2CCCN(C(=O)CCC(F)(F)F)C2)s1` [ZINC000574285278], the remaining activity at 1 µM stood at 76.2%.

Turning to `Cc1cc(NC(=O)[C@H](C)N2CCC[C@@H]([C@H](C)O)C2)ccc1Br` [ZINC000534109220], the remaining activity at 1 µM came out at 70.4%.

Regarding `O=C(CN1CCC(c2nc3cc(Cl)ccc3o2)CC1)N1CCC1` [ZINC000298791523], the remaining activity at 1 µM was 89%.

For `C[C@@H]1CN(C(=O)Cc2cncnc2)C[C@H]1NC(=O)CCn1cccn1` [ZINC001071984909], the remaining activity at 1 µM amounted to 89.9%.

In the case of `CC(C)CSc1ccc([N+](=O)[O-])cc1C(=O)N(C)C[C@H]1CCCN1C` [ZINC000421710394], the remaining activity at 1 µM turned out to be 94.6%.

On to `C[C@@H](CCNC(=O)C1(CN(C)C)CC1)NC(=O)c1ncccc1O` [ZINC001078073018], for which the remaining activity at 1 µM worked out at 111%.

`C[C@H](Cn1ncc2ccccc2c1=O)N[C@@H](C)Cc1ccc2c(c1)CCCC2` [ZINC000657934399]: the remaining activity at 1 µM came to 13.3%.

Take `C[C@@H]1CCC[C@H](CCN(C)CCNC(=O)c2c3c(nn2C)CCC3)C1` [ZINC001399642198]: the remaining activity at 1 µM amounted to 21.2%.

Regarding `CCN(C[C@@H]1CCN(Cc2ccccc2)C1)C(=O)[C@H]1CC(=O)N(C2CCCC2)C1` [ZINC000246894550], the remaining activity at 1 µM was 72.6%.

On to `CC(C)NC1CCN(C(=O)Cn2cnc(C(N)=O)n2)CC1` [ZINC000996610565], for which the remaining activity at 1 µM amounted to 114%.

Take `O=C(NCc1ccc(F)cc1C(F)(F)F)[C@@H]1CC12CCNCC2` [ZINC000136880129]: the remaining activity at 1 µM stood at 53.9%.

For `N#Cc1sccc1N1CCN(CCCCCn2cccn2)CC1` [ZINC000595632104], the remaining activity at 1 µM was found to be 45.7%.

Turning to `C[C@@H](CC(N)=O)NC[C@H](CO)Cc1cc(Br)ccc1F` [ZINC000453336584], the remaining activity at 1 µM stood at 100%.

On to `C[C@@H](C(=O)NCc1ccccc1Cl)N1CC[C@H](n2ncc3ccccc32)C1` [ZINC000542825037], for which the remaining activity at 1 µM was found to be 107%.

Consider `COC(=O)[C@@H](C)CS(=O)(=O)N[C@@H]1CCN(CC2CCCC2)C1` [ZINC000152090354], for which the remaining activity at 1 µM turned out to be 44.7%.

For `Cc1c(Br)cccc1C(=O)N1CC[C@@H]2CCN(C)C[C@H]21` [ZINC000272592294], the remaining activity at 1 µM amounted to 79.1%.

`C[C@@H]1CCC[C@@H](NC(=O)CN2CCN(CC[C@@H]3CCOC3)CC2)C1` [ZINC000438095302]: the remaining activity at 1 µM was found to be 38.1%.

As for `COC(=O)c1ccccc1NC(=O)CN1C[C@@H](c2ccccc2)C[C@@H]1C` [ZINC000532978237], the remaining activity at 1 µM stood at 119%.

Regarding `C[C@@H](Cn1cc(Br)cn1)NCCOc1ccc2c(c1)OCO2` [ZINC000133991118], the remaining activity at 1 µM is 65.4%.

As to `CC(C)=CC(=O)N1CC[C@@H](CNC(=O)c2ccn(CCN(C)C)n2)C1` [ZINC000982403760], the remaining activity at 1 µM is 104%.

Regarding `C[C@H](Cn1cncn1)N[C@@H]1CCN(c2ccccc2C(F)(F)F)C1` [ZINC000657977970], the remaining activity at 1 µM came to 83.1%.

`CCN1CC[C@@H](N2CCC(NC(=O)c3cncnc3C)CC2)C1=O` [ZINC001002391793]: the remaining activity at 1 µM turned out to be 90.1%.

As for `COc1ccc(C(=O)N[C@@H]2CN(C(=O)C3(C)CCC3)C[C@@H]2O)nn1` [ZINC000970553575], the remaining activity at 1 µM worked out at 92.8%.

As to `CC(C)(C)OC(=O)N1CCC[C@@](C)(CNC[C@@H](O)c2c(F)cccc2F)C1` [ZINC000819225653], the remaining activity at 1 µM worked out at 17.6%.

With `CN1CC[C@](O)(CN[C@@H](c2sccc2Br)C2CCCCC2)C1` [ZINC000556573026], the remaining activity at 1 µM stood at 16.7%.

For the compound `O=C1Nc2ccccc2CC[C@H]1N1CC[C@@H](COCc2ccccc2)C1` [ZINC000192043753], the remaining activity at 1 µM came to 52.9%.

For `CCN(CC)[C@H]1CCN(Cc2ncc(Cl)cc2Cl)C1` [ZINC000182372239], the remaining activity at 1 µM came out at 34.6%.

For the compound `O=C(Cn1cnnn1)N1CC(CNC(=O)C23CCCN2CCC3)C1` [ZINC001003297636], the remaining activity at 1 µM was determined as 72.3%.

Regarding `CC(C)N1C[C@H](NC(=O)N[C@@H](C)c2ccc(Br)s2)[C@@H](C)C1` [ZINC000436303801], the remaining activity at 1 µM came to 75.3%.

Turning to `CN(C(=O)c1cccnn1)C1CN(C(=O)[C@H]2CCC[C@H]3CCCN32)C1` [ZINC000955102158], the remaining activity at 1 µM was 111%.

`C[C@H](C(=O)NCC1(O)CN(C(=O)Cn2ncnn2)C1)C1CCCC1` [ZINC001046914841]: the remaining activity at 1 µM was 104%.

On to `COc1cc(Cl)c(C)cc1NC(=O)[C@H](C)N(C)Cc1sccc1C` [ZINC000520440291], for which the remaining activity at 1 µM came out at 102%.

For `O[C@H](CN1CC[C@@H](Cc2nccs2)C1)c1c(F)cccc1F` [ZINC000934332177], the remaining activity at 1 µM came to 34%.

Regarding `Cc1nc(CN2CC[C@H](CC3CC3)C2)nc2ccccc12` [ZINC000550423124], the remaining activity at 1 µM worked out at 43.5%.

For `C=CCOCC(=O)N(CCN)CCc1ccccc1` [ZINC000261774189], the remaining activity at 1 µM amounted to 108%.

For `CC(C)N1CCN([C@H]2CCN(C(=O)CC3(O)CCCCC3)C2)CC1` [ZINC000363920872], the remaining activity at 1 µM was determined as 88.9%.

On to `CCc1nn(C)c(Cl)c1C(=O)N1CC[C@@H](N2CCNCC2)C1` [ZINC000286782676], for which the remaining activity at 1 µM was found to be 132%.

Take `CCO[C@@H]1C[C@](CO)(NC[C@H](O)COC2CCOCC2)C1(C)C` [ZINC000444807044]: the remaining activity at 1 µM stood at 120%.

With `CC(C)CO[C@H]1CCN([C@@H](C)C(=O)N(C)Cc2ccc(Br)cc2)C1` [ZINC000468894194], the remaining activity at 1 µM was 35.4%.

`CC1CCN(C[C@H](O)CNc2nccc3ccc([N+](=O)[O-])cc23)CC1` [ZINC000413145325]: the remaining activity at 1 µM came out at 62.9%.

`CN1CC[C@@H](C(=O)N2CC[C@@]3(CCN(Cc4nnn(C)n4)C3)C2)C1` [ZINC001041828396]: the remaining activity at 1 µM worked out at 103%.

For `CCN(CC)[C@H]1CCN(CC(=O)N[C@@H](c2ccccc2)c2cccs2)C1` [ZINC000464767692], the remaining activity at 1 µM turned out to be 73.8%.

On to `COC(=O)C[C@H]1CCCN1C[C@@H](O)Cc1ccc(C(F)(F)F)cc1` [ZINC000247001079], for which the remaining activity at 1 µM came out at 61.2%.

`COc1ccc2cc(CN[C@](C)(CO)C(C)C)ccc2c1` [ZINC000398583627]: the remaining activity at 1 µM was 14.6%.

Values taken from publication doi:10.1101/2021.04.29.441652v1 (biorxiv, 2021).
